Measurements: PubChem BioAssay (NCI)
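Interpolation was linear, between the two tested concentrations surrounding the appropriate level; five concentrations were tested over 48 hours in 96-well plates. TGI denotes the concentration required for complete inhibition of growth.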

Assays:
Assay in all cases: growth of human tumour cells (NCI), 48 h
[1] = tested on: OVCAR-5 ovarian
[2] = tested on: SN12C renal
[3] = tested on: OVCAR-3 ovarian
[4] = tested on: A498 renal
[5] = tested on: RPMI-8226 leukemia
[6] = tested on: HCT-116 colon
[7] = tested on: NCI-H522 lung
[8] = tested on: NCI-H226 lung
[9] = tested on: HT29 colon
[10] = tested on: SF-295 CNS
[11] = tested on: MDA-N
[12] = tested on: 786-0 renal
[13] = tested on: OVCAR-8 ovarian
[14] = tested on: KM12 colon
[15] = tested on: UO-31 renal
[16] = tested on: UACC-257 melanoma
[17] = tested on: MALME-3M melanoma
[18] = tested on: A549 NSCLC
[19] = tested on: MCF7 breast
[20] = tested on: SF-268 CNS
[21] = tested on: MDA-MB-231 breast
[22] = tested on: PC-3 prostate
[23] = tested on: EKVX NSCLC
[24] = tested on: NCI/ADR-RES ovarian
[25] = tested on: SF-539 CNS
[26] = tested on: BT-549 breast
[27] = tested on: ACHN renal
[28] = tested on: LOX IMVI melanoma
[29] = tested on: UACC-62 melanoma
[30] = tested on: HCC-2998 colon
[31] = tested on: K-562 leukemia
[32] = tested on: CAKI-1 renal
[33] = tested on: HL-60(TB) leukemia
[34] = tested on: SK-MEL-2 melanoma
[35] = tested on: SNB-19 CNS
[36] = tested on: HS 578T breast
[37] = tested on: TK-10 renal
[38] = tested on: SK-MEL-28 melanoma
[39] = tested on: HCT-15 colon
[40] = tested on: MOLT-4 leukemia
[41] = tested on: SW-620 colon
[42] = tested on: M14 melanoma
[43] = tested on: SK-MEL-5 melanoma
[44] = tested on: HOP-62 NSCLC
[45] = tested on: MDA-MB-435
[46] = tested on: HOP-92 NSCLC
[47] = tested on: IGROV1 ovarian
[48] = tested on: U251 CNS
[49] = tested on: DU-145 prostate
[50] = tested on: COLO 205 colon
[51] = tested on: OVCAR-4 ovarian
[52] = tested on: NCI-H460 lung
[53] = tested on: SR leukemia
[54] = tested on: NCI-H23 lung
[55] = tested on: RXF 393 renal
[56] = tested on: SNB-75 CNS
[57] = tested on: SK-OV-3 ovarian
[58] = tested on: CCRF-CEM leukemia

SMILES: COc1ccc([C@H]2[C@H](C)C3=Nc4ccccc4CN32)cc1
- TGI [1]: > 100 µM
- TGI [2]: > 100 µM
- TGI [3]: > 100 µM
- TGI [4]: > 100 µM
- TGI [5]: > 100 µM
- TGI [6]: > 100 µM
- TGI [7]: > 100 µM
- TGI [8]: > 100 µM
- TGI [9]: > 100 µM
- TGI [10]: > 100 µM
- TGI [11]: 47.2 µM
- TGI [12]: > 100 µM
- TGI [13]: > 100 µM
- TGI [14]: > 100 µM
- TGI [15]: > 100 µM
- TGI [16]: > 100 µM
- TGI [17]: > 100 µM
- TGI [18]: > 100 µM
- TGI [19]: > 100 µM
- TGI [20]: > 100 µM
- TGI [21]: > 100 µM
- TGI [22]: > 100 µM
- TGI [23]: > 100 µM
- TGI [24]: > 100 µM
- TGI [25]: > 100 µM
- TGI [26]: > 100 µM
- TGI [27]: > 100 µM
- TGI [28]: > 100 µM
- TGI [29]: > 100 µM
- TGI [30]: > 100 µM
- TGI [31]: > 100 µM
- TGI [32]: > 100 µM
- TGI [33]: > 100 µM
- TGI [34]: > 100 µM
- TGI [35]: > 100 µM
- TGI [36]: > 100 µM
- TGI [37]: > 100 µM
- TGI [38]: > 100 µM
- TGI [39]: > 100 µM
- TGI [40]: > 100 µM
- TGI [41]: > 100 µM
- TGI [42]: > 100 µM
- TGI [43]: > 100 µM
- TGI [44]: > 100 µM
- TGI [45]: > 100 µM
- TGI [46]: > 100 µM
- TGI [47]: > 100 µM
- TGI [48]: > 100 µM
- TGI [49]: > 100 µM
- TGI [50]: > 100 µM
- TGI [51]: > 100 µM
- TGI [52]: > 100 µM
- TGI [53]: > 100 µM
- TGI [54]: > 100 µM
- TGI [55]: > 100 µM

SMILES: NC(=Nc1ccc(Cl)cc1)c1ccccc1N
- TGI [1]: > 100 µM
- TGI [3]: > 100 µM
- TGI [4]: > 100 µM
- TGI [5]: > 100 µM
- TGI [6]: > 100 µM
- TGI [7]: > 100 µM
- TGI [8]: > 100 µM
- TGI [9]: > 100 µM
- TGI [10]: > 100 µM
- TGI [56]: > 100 µM
- TGI [57]: > 100 µM
- TGI [11]: > 100 µM
- TGI [12]: > 100 µM
- TGI [13]: > 100 µM
- TGI [14]: > 100 µM
- TGI [15]: > 100 µM
- TGI [16]: > 100 µM
- TGI [17]: > 100 µM
- TGI [18]: > 100 µM
- TGI [19]: > 100 µM
- TGI [20]: > 100 µM
- TGI [21]: > 100 µM
- TGI [22]: > 100 µM
- TGI [23]: > 100 µM
- TGI [58]: > 100 µM
- TGI [24]: > 100 µM
- TGI [26]: > 100 µM
- TGI [27]: > 100 µM
- TGI [28]: > 100 µM
- TGI [29]: > 100 µM
- TGI [30]: > 100 µM
- TGI [31]: > 100 µM
- TGI [32]: > 100 µM
- TGI [33]: > 100 µM
- TGI [35]: > 100 µM
- TGI [36]: > 100 µM
- TGI [37]: > 100 µM
- TGI [38]: > 100 µM
- TGI [39]: > 100 µM
- TGI [40]: > 100 µM
- TGI [41]: > 100 µM
- TGI [42]: > 100 µM
- TGI [43]: > 100 µM
- TGI [44]: > 100 µM
- TGI [45]: > 100 µM
- TGI [46]: > 100 µM
- TGI [47]: > 100 µM
- TGI [48]: > 100 µM
- TGI [49]: > 100 µM
- TGI [50]: > 100 µM
- TGI [51]: > 100 µM
- TGI [52]: > 100 µM
- TGI [53]: > 100 µM
- TGI [54]: > 100 µM
- TGI [55]: > 100 µM
